*1 amine or outer side, *2 acyl side, *3 side chain or, on linkers, in order; H or OH if unused. Where a SMILES comes first, the peptide text is derived from it. Bridges are numbered along the chain shown (N, C = ends). [ ]: non-standard residue; d: D form. The star is where a group is joined. Orn(4R-OH,5R-OCH2CH2NMe3+) = C[N+](C)(C)CCO[C@@H](N[*:3])[C@H](O)C[C@H](N[*:1])C(=O)[*:2]; hTyr(3S-OH,4S-OH) = N[C@H](C(=O)O)[C@H](O)[C@@H](O)c1ccc(O)cc1; X1 = CC(O)CCCOc1ccc(-c2ccc(-c3ccc(C(=O)*)cc3)cc2)cc1; X2 = CCCC(O)COc1ccc(-c2ccc(-c3ccc(C(=O)*)cc3)cc2)cc1; X3 = CCC(O)CCOc1ccc(-c2ccc(-c3ccc(C(=O)*)cc3)cc2)cc1; Pro(3S-OH,4S-Me) = C[C@H]1CN[C@H](C(=O)O)[C@H]1O; X4 = O=C(c1ccc(-c2ccc(-c3ccc(O)cc3)cc2)cc1)*; Hyp = O=C(O)[C@@H]1C[C@@H](O)CN1
Key:
[1] = Rat metabolite profiling (LC-MS with radioactivity detection); format: in vivo, Sprague-Dawley rats; details: rat, in vivo, iv, 15 mg/kg
Experimental: (i) Rat study design. The study used 12 male Sprague-Dawley rats, each administered a bolus IV injection into the tail vein over approximately 3–4 min of 15 mg/kg of rezafungin (with a target radioactivity of 200 μCi/kg of [^14C]-rezafungin). Three of the rats were bile duct cannulated. Whole blood/plasma, urine, feces/bile, and cage washings were collected at periodic intervals from noncannulated rats until euthanization at 336 h postdose and from bile duct cannulated rats until euthanization at 120 h postdose as that was the duration that the patency of bile duct cannulae could be maintained. Carcasses were collected at the time of euthanization. All samples were analyzed for drug-derived radioactivity by liquid scintillation counting.
(§1) (iv) Metabolite profiling. The metabolite identification and urine profiling were achieved using pooled samples by equal percent weight of samples (urine, bile, feces) or by equal volume (50 μl) aliquots of each plasma sample across all time points/intervals. The urine, plasma, bile, and fecal samples were analyzed using liquid chromatography tandem mass spectrometry (LC-MS) coupled with a radioactivity flow-through detector for metabolite profiling and identification. Tandem MS experiments were performed, and the structures of the metabolites were proposed based on their MS/MS spectra. The proposed structures were confirmed by comparison of the retention times and product ion spectra with the authentic reference standards when possible.

[2] = Monkey metabolite profiling (LC-MS with radioactivity detection); format: in vivo, cynomolgus monkeys; details: cynomolgus monkey, in vivo, iv, 10 mg/kg
Experimental: (ii) Monkey study design. The study used 3 male cynomolgus monkeys, each administered a single 10 mg/kg IV dose of [^14C]-rezafungin (with a target radioactivity of 100 μCi/kg of [^14C]-rezafungin) by infusion into a saphenous vein over 20 min. Whole blood and plasma samples were collected at each of the following time points: predose, 0.5, 2, 4, 8, 24, 48, 96 120, 144, 168, 240, 480, 720, and 1440 h postdose. Urine, feces, and cage washings were collected at predose (urine/feces only) and daily 24-h collections for 30 days.
as §1

[3] = cited from earlier work
Description: Biliary excretion has been observed for caspofungin([17]) and anidulafungin([18]). In the case of anidulafungin, although uncommon, passive diffusion (up to 10% of dosed fraction) was reported for anidulafungin, with which rezafungin ...

| Compound | Share of total plasma radioactivity exposure [1] | Share of total recovered radioactivity in urine [1] [%] | Share of total plasma radioactivity exposure [2] [%] | Share of total recovered radioactivity in urine [2] [%] | Share of total recovered radioactivity in feces [2] [%] | Passive diffusion, dosed fraction [3] |
| --- | --- | --- | --- | --- | --- | --- |
| CCCC(O)COc1ccc(-c2ccc(-c3ccc(C(=O)N[C@H]4C[C@@H](O)[C@@H](OCC[N+](C)(C)C)NC(=O)[C@@H]5[C@@H](O)[C@@H](C)CN5C(=O)[C@H]([C@@H](C)O)NC(=O)[C@H]([C@H](O)[C@@H](O)c5ccc(O)cc5)NC(=O)[C@@H]5C[C@@H](O)CN5C(=O)[C@H]([C@@H](C)O)NC4=O)cc3)cc2)cc1 (stereo partly drawn) [2’-hydroxylpentyl rezafungin] (X2-[Orn(4R-OH,5R-OCH2CH2NMe3+)]T[Hyp][hTyr(3S-OH,4S-OH)]T[Pro(3S-OH,4S-Me)]; lactam 1-C) | ~11% | 7.8 | 3.0 | 25 |  |  |
| C[C@@H](O)[C@@H]1NC(=O)[C@H]([C@H](O)[C@@H](O)c2ccc(O)cc2)NC(=O)[C@@H]2C[C@@H](O)CN2C(=O)[C@H]([C@@H](C)O)NC(=O)[C@@H](NC(=O)c2ccc(-c3ccc(-c4ccc(O)cc4)cc3)cc2)C[C@@H](O)[C@@H](OCC[N+](C)(C)C)NC(=O)[C@@H]2[C@@H](O)[C@@H](C)CN2C1=O [despentyl-rezafungin] (X4-[Orn(4R-OH,5R-OCH2CH2NMe3+)]T[Hyp][hTyr(3S-OH,4S-OH)]T[Pro(3S-OH,4S-Me)]; lactam 1-C) |  | 28 |  | 22 | 25 |  |
| CCC(O)CCOc1ccc(-c2ccc(-c3ccc(C(=O)N[C@H]4C[C@@H](O)[C@@H](OCC[N+](C)(C)C)NC(=O)[C@@H]5[C@@H](O)[C@@H](C)CN5C(=O)[C@H]([C@@H](C)O)NC(=O)[C@H]([C@H](O)[C@@H](O)c5ccc(O)cc5)NC(=O)[C@@H]5C[C@@H](O)CN5C(=O)[C@H]([C@@H](C)O)NC4=O)cc3)cc2)cc1 (stereo partly drawn) [3′-hydroxylpentyl rezafungin] (X3-[Orn(4R-OH,5R-OCH2CH2NMe3+)]T[Hyp][hTyr(3S-OH,4S-OH)]T[Pro(3S-OH,4S-Me)]; lactam 1-C) |  | 1.9 | 6.3 | 12 |  |  |
| CC(O)CCCOc1ccc(-c2ccc(-c3ccc(C(=O)N[C@H]4C[C@@H](O)[C@@H](OCC[N+](C)(C)C)NC(=O)[C@@H]5[C@@H](O)[C@@H](C)CN5C(=O)[C@H]([C@@H](C)O)NC(=O)[C@H]([C@H](O)[C@@H](O)c5ccc(O)cc5)NC(=O)[C@@H]5C[C@@H](O)CN5C(=O)[C@H]([C@@H](C)O)NC4=O)cc3)cc2)cc1 (stereo partly drawn) [4’-hydroxylpentyl rezafungin] (X1-[Orn(4R-OH,5R-OCH2CH2NMe3+)]T[Hyp][hTyr(3S-OH,4S-OH)]T[Pro(3S-OH,4S-Me)]; lactam 1-C) | about 33% | 62 | 8.3 | 42 |  |  |
| anidulafungin |  |  |  |  |  | up to 10 % of dosed fraction |
